The values that follow come from PubChem BioAssay AID248 (DTP/NCI, 2004).

Each structure is given as a SMILES string. Where “and” joins values, the source holds several entries; their conditions need not be identical. Equal entries are not always repeated. Toxic doses and inconclusive results are not listed.

The test system of this assay is L1210 leukemia ip in BDF1 mice, survival T/C. Nature of the assay: NCI In Vivo Anticancer Drug Screen. Data for tumor model L1210 Leukemia (intraperitoneal) in B6D2F1 (BDF1) mice. The following applies: endpoint: mean survival time, higher = longer survival. The essentials: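 Value reflects the ratio of survival in compound-treated mice to survival in vehicle-treated controls, with both groups carrying the same transplanted tumor.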

Setting [1] is: dose: 100.0 mg/kg/injection, schedule: Q01DX009 (ip), vehicle: Klucel (hydroxypropylcellulose) (HPC).
Where [2] appears, read: dose: 200.0 mg/kg/injection, schedule: Q01DX009 (ip), vehicle: Klucel (hydroxypropylcellulose) (HPC).
Setting [3] is: dose: 400.0 mg/kg/injection, schedule: Q01DX009 (ip), vehicle: Klucel (hydroxypropylcellulose) (HPC).
[4] abbreviates: dose: 100.0 mg/kg/injection, schedule: Q04DX002 (ip), vehicle: Klucel (hydroxypropylcellulose) (HPC).
Setting [5] is: dose: 200.0 mg/kg/injection, schedule: Q04DX002 (ip), vehicle: Klucel (hydroxypropylcellulose) (HPC).
Setting [6] is: dose: 400.0 mg/kg/injection, schedule: Q04DX002 (ip), vehicle: Klucel (hydroxypropylcellulose) (HPC).
Where [7] appears, read: dose: 100.0 mg/kg/injection, schedule: Q04DX003 (ip), vehicle: Klucel (hydroxypropylcellulose) (HPC).
The mark [8] stands for this setting: dose: 200.0 mg/kg/injection, schedule: Q04DX003 (ip), vehicle: Klucel (hydroxypropylcellulose) (HPC).
The mark [9] stands for this setting: dose: 400.0 mg/kg/injection, schedule: Q04DX003 (ip), vehicle: Klucel (hydroxypropylcellulose) (HPC).
The mark [10] stands for this setting: dose: 100.0 mg/kg/injection, schedule: Q01DX001 (ip), vehicle: carboxymethylcellulose (CMC).
The mark [11] stands for this setting: dose: 200.0 mg/kg/injection, schedule: Q01DX001 (ip), vehicle: carboxymethylcellulose (CMC).
The mark [12] stands for this setting: dose: 400.0 mg/kg/injection, schedule: Q01DX001 (ip), vehicle: carboxymethylcellulose (CMC).
[13] abbreviates: dose: 100.0 mg/kg/injection, schedule: Q04DX003 (ip), vehicle: saline with Tween-80.
Setting [14] is: dose: 200.0 mg/kg/injection, schedule: Q04DX003 (ip), vehicle: saline with Tween-80.
Where [15] appears, read: dose: 400.0 mg/kg/injection, schedule: Q04DX003 (ip), vehicle: saline with Tween-80.

In the case of `COc1cc(NCc2ccccc2)ccc1NC(C)=O`, the T/C (dose: 15.0 mg/kg/injection, schedule: Q01DX001 (ip), vehicle: carboxymethylcellulose (CMC)) was 98 % of control; the T/C (dose: 30.0 mg/kg/injection, schedule: Q01DX001 (ip), vehicle: carboxymethylcellulose (CMC)) was 110 % of control; the T/C (dose: 75.0 mg/kg/injection, schedule: Q01DX001 (ip), vehicle: carboxymethylcellulose (CMC)) is 98 % of control.

For the molecule `COc1ccc(/C=C2\N=C(c3ccco3)OC2=O)cc1Br`, the T/C was 94 % of control under setting [1], 94 % of control under setting [2] and 91 % of control under setting [3].

For `Cc1ccc(N=Cc2cc(Cl)cc(Cl)c2OC(=O)c2ccccc2)cc1Cl`, the T/C runs as follows: under setting [4], 94 % of control; under setting [5], 111 % of control; under setting [6], 97 % of control.

Regarding `O=S(=O)(/C=C(/Cl)c1ccccc1)c1ccccc1`, the T/C reads like this: (dose: 25.0 mg/kg/injection, schedule: Q01DX009 (ip), vehicle: acetone) 92 % of control; (dose: 50.0 mg/kg/injection, schedule: Q01DX009 (ip), vehicle: acetone) 90 % of control; (dose: 100.0 mg/kg/injection, schedule: Q01DX001 (ip), vehicle: acetone) 101 % of control; (dose: 100.0 mg/kg/injection, schedule: Q04DX003 (ip), vehicle: acetone) 103 % of control; (dose: 200.0 mg/kg/injection, schedule: Q01DX001 (ip), vehicle: acetone) 102 % of control; (dose: 400.0 mg/kg/injection, schedule: Q01DX001 (ip), vehicle: acetone) 104 % of control.

Regarding `Cc1ccc(NC(=O)Oc2ccc(Cl)cc2C)c([N+](=O)[O-])c1`, the T/C is 102 % of control under setting [7], 101 % of control under setting [8] and 91 % of control under setting [9].

`C=CCN(CC=C)P(=O)(N1CC1C)N1CC1C` (stereo not given): the T/C is, setting by setting: (dose: 1.0 mg/kg/injection, schedule: Q01DX009 (ip), vehicle: saline) 124 % of control; (dose: 3.0 mg/kg/injection, schedule: Q01DX009 (ip), vehicle: saline) 172 % of control.

As for `CCC[CH2][Sn]1([CH2]CCC)[S]CCOB(OCC[S][Sn]([CH2]CCC)([CH2]CCC)[S]CCOB2OCC[S][Sn]([CH2]CCC)([CH2]CCC)[S]CCO2)OCC[S]1`, the T/C is 100 % of control (dose: 6.25 mg/kg/injection, schedule: Q01DX001 (ip), vehicle: Klucel (hydroxypropylcellulose) (HPC)); 89 % of control (dose: 12.5 mg/kg/injection, schedule: Q01DX001 (ip), vehicle: Klucel (hydroxypropylcellulose) (HPC)); 112 % of control (dose: 25.0 mg/kg/injection, schedule: Q01DX001 (ip), vehicle: Klucel (hydroxypropylcellulose) (HPC)).

`CCOC(=O)NC(NC(=O)OCC)c1ccco1`: the T/C (dose: 100.0 mg/kg/injection, schedule: Q01DX001 (ip), vehicle: other) is 98 % of control; the T/C (dose: 200.0 mg/kg/injection, schedule: Q01DX001 (ip), vehicle: other) is 98 % of control; the T/C (dose: 400.0 mg/kg/injection, schedule: Q01DX001 (ip), vehicle: other) was 89 % of control.

With `Nc1ncnc2c1ncn2C1OC(CO)C(N)C1O` (stereo not given), the T/C is 105 % of control (dose: 1.3 mg/kg/injection, schedule: Q01DX Z (ip), vehicle: carboxymethylcellulose (CMC)); 108 % of control (dose: 2.0 mg/kg/injection, schedule: Q01DX Z (ip), vehicle: carboxymethylcellulose (CMC)); 113 % of control (dose: 3.0 mg/kg/injection, schedule: Q01DX Z (ip), vehicle: carboxymethylcellulose (CMC)).

For `O=C1NC(=O)C(Cc2ccccc2)(Cc2ccccc2)C(=O)N1Cc1ccccc1`, the T/C is, setting by setting: under setting [10], 90 % of control; under setting [11], 90 % of control; under setting [12], 98 % of control.

On to `Nc1ccc(Cc2ccncc2)cc1`, for which the T/C was 105 % of control (dose: 25.0 mg/kg/injection, schedule: Q01DX001 (ip), vehicle: carboxymethylcellulose (CMC)); 102 % of control and 92 % of control (dose: 25.0 mg/kg/injection, schedule: Q01DX009 (ip), vehicle: carboxymethylcellulose (CMC)); 94 % of control (dose: 25.0 mg/kg/injection, schedule: Q04DX002 (ip), vehicle: carboxymethylcellulose (CMC)); 97 % of control (dose: 25.0 mg/kg/injection, schedule: Q04DX003 (ip), vehicle: carboxymethylcellulose (CMC)); 102 % of control (dose: 50.0 mg/kg/injection, schedule: Q01DX001 (ip), vehicle: carboxymethylcellulose (CMC)); 95 % of control and 98 % of control (dose: 50.0 mg/kg/injection, schedule: Q01DX009 (ip), vehicle: carboxymethylcellulose (CMC)). Also, the T/C (dose: 50.0 mg/kg/injection, schedule: Q04DX002 (ip), vehicle: carboxymethylcellulose (CMC)) is 93 % of control and 103 % of control; the T/C (dose: 50.0 mg/kg/injection, schedule: Q04DX003 (ip), vehicle: carboxymethylcellulose (CMC)) was 100 % of control; the T/C under setting [10] is 103 % of control; the T/C (dose: 100.0 mg/kg/injection, schedule: Q01DX009 (ip), vehicle: carboxymethylcellulose (CMC)) was 94 % of control and 103 % of control; the T/C (dose: 200.0 mg/kg/injection, schedule: Q04DX002 (ip), vehicle: carboxymethylcellulose (CMC)) is 94 % of control.

Turning to `Nc1ncnc(N)c1NC(=O)c1ccc(C(=O)c2ccccc2)cc1`, the T/C reads like this: under setting [7], 100 % of control; under setting [8], 94 % of control; under setting [9], 94 % of control.

On to `Nc1cc(Br)cc2[nH]c(=O)c3cc(Br)ccc3c12`, for which the T/C reads like this: under setting [10], 100 % of control; under setting [11], 100 % of control; under setting [12], 102 % of control.

Take `CCOC(=O)OC1C(OC)OC2COC(c3ccccc3)OC2C1O` (stereo not given): the T/C under setting [4] was 91 % of control, the T/C under setting [5] is 91 % of control and the T/C under setting [6] was 107 % of control.

With `C[N+](C)(C)C1CCCCC1`, the T/C (dose: 75.0 mg/kg/injection, schedule: Q01DX001 (ip), vehicle: saline) is 110 % of control and 106 % of control; the T/C (dose: 150.0 mg/kg/injection, schedule: Q01DX001 (ip), vehicle: saline) is 105 % of control and 106 % of control.

As to `c1cc[c]([Pb]([S]c2nc3ccccc3[nH]2)([c]2ccccc2)[c]2ccccc2)cc1`, the T/C runs as follows: (dose: 3.12 mg/kg/injection, schedule: Q04DX002 (ip), vehicle: gum acacia) 104 % of control; (dose: 6.25 mg/kg/injection, schedule: Q04DX002 (ip), vehicle: gum acacia) 101 % of control; (dose: 12.5 mg/kg/injection, schedule: Q04DX002 (ip), vehicle: gum acacia) 97 % of control and 101 % of control.

Take `O=C(Nc1ccc(Cl)c(Cl)c1)Nc1ccc(Cl)c(Cl)c1`: the T/C is 100 % of control under setting [4], 90 % of control under setting [5] and 86 % of control under setting [6].

On to `Nc1ccc(CCCCc2ccccc2)cc1`, for which the T/C is 96 % of control (dose: 25.0 mg/kg/injection, schedule: Q01DX009 (ip), vehicle: saline with Tween-80) and 89 % of control (dose: 50.0 mg/kg/injection, schedule: Q01DX009 (ip), vehicle: saline with Tween-80).

On to `O=C(COc1ccc(Cl)cc1Cl)Oc1c(Cl)c(Cl)c(Cl)c(Cl)c1Cl`, for which the T/C by setting is: (dose: 100.0 mg/kg/injection, schedule: Q01DX009 (ip), vehicle: saline with Tween-80) 88 % of control; under setting [13], 91 % of control; (dose: 200.0 mg/kg/injection, schedule: Q01DX009 (ip), vehicle: saline with Tween-80) 88 % of control; under setting [14], 92 % of control; (dose: 400.0 mg/kg/injection, schedule: Q01DX009 (ip), vehicle: saline with Tween-80) 92 % of control; under setting [15], 86 % of control.

With `Nc1cccc(S(=O)(=O)c2cccc(N)c2)c1`, the T/C under setting [1] is 100 % of control; the T/C under setting [7] is 97 % of control; the T/C under setting [2] is 94 % of control; the T/C under setting [8] was 94 % of control; the T/C under setting [3] is 92 % of control; the T/C under setting [9] was 94 % of control.

Consider `C[n+]1ccccc1Cl`, for which the T/C is 115 % of control (dose: 50.0 mg/kg/injection, schedule: Q04DX002 (ip), vehicle: saline); 108 % of control (dose: 100.0 mg/kg/injection, schedule: Q04DX002 (ip), vehicle: saline); 110 % of control (dose: 200.0 mg/kg/injection, schedule: Q04DX002 (ip), vehicle: saline).

With `CCCC(C)(C)C(=O)Nc1cccc(O)c1`, the T/C was 95 % of control under setting [13], 95 % of control under setting [14] and 92 % of control under setting [15].
